# Patent publication US12583858B2 (Genentech, Inc., priority 2015, dated 2026)
# Target: T1, TDO2 (Homo sapiens, UniProt P48775)
# T1 construct: decreased levels of NFK in SW48 cells (high TDO expressing cells)
# Experiment: TDO2 cell assay (NFK GreenScreen, SW48 cells)
# Type: cell-based
# Settings: SW48 cells (high TDO expressing), 200 uM tryptophan, 24 hours; Table 3; read-out: TDO2 Cell Fluor EC50
# T1 sequence (P48775 whole entry): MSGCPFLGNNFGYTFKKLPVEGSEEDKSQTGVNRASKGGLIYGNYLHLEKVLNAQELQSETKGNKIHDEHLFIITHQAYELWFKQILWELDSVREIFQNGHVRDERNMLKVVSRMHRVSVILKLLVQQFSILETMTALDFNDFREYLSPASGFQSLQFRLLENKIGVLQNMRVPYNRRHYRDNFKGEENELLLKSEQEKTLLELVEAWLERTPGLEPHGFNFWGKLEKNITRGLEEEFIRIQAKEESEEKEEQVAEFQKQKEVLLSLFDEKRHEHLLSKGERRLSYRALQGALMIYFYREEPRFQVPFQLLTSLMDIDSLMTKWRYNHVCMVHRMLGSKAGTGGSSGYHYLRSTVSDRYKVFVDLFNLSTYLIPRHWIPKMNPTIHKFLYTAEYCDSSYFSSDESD
row,Structure (SMILES),EC50 [µM]
1,"OC1CCCCC1C1c2ccc(F)cc2-c2cncn21 (single isomer, unassigned) [Example 25b]",> 25
2,"OC1c2cnccc2CC1C1c2ccccc2-c2cncn21 (single isomer, unassigned) [Example 71bb]",0.49
3,"CC1(C)C[C@@H](O)[C@H]1[C@@H]1c2ccccc2-c2cncn21 [Example 22e, (1R,2R)-2-((R)-5H-imidazo[5,1-a]isoindol-5-yl)-3,3-dimethylcyclobutan-1-ol]",3.5
4,"NS(=O)(=O)N1CC(O)C(C2c3ccccc3-c3cncn32)C1 (single isomer, unassigned) [Example 28a]",> 25
5,"O=S(=O)(C1CC1)N1CC[C@@H]([C@H]2c3ccccc3-c3cncn32)[C@H](O)C1 (single isomer, unassigned) [Example 77a]",> 25
6,"CS(=O)(=O)c1ccc2c(c1)OCC(C1c3ccccc3-c3cncn31)C2O (single isomer, unassigned) [Example 91h]",> 25
7,"CS(=O)(=O)c1ccc2c(c1)CCC(C1c3ccccc3-c3cncn31)C2O (single isomer, unassigned) [Example 36d]",3.8
8,"O=S1(=O)CC(O)C(C2c3ccccc3-c3cncn32)C1 (single isomer, unassigned) [Example 38c]",22
9,"CS(=O)(=O)c1ccc2c(c1)CCC(C1c3ccccc3-c3cncn31)C2O (single isomer, unassigned) [Example 36e]",2.7
10,"CC(C)(C)OC(=O)N1CCC(O)C(C2c3ccccc3-c3cncn32)C1 (single isomer, unassigned) [Example 11c, tert-butyl 4-hydroxy-3-(5H-imidazo[5,1-a]isoindol-5-yl)piperidine-1-carboxylate]",> 25
11,"NS(=O)(=O)N1CC(O)C(C2c3ccccc3-c3cncn32)C1 (single isomer, unassigned) [Example 28c]",> 25
12,"CC(C)(C)OC(=O)N1CCC(C2c3ccccc3-c3cncn32)C(O)C1 (single isomer, unassigned) [Example 10c, tert-butyl 3-hydroxy-4-(5H-imidazo[5,1-a]isoindol-5-yl)piperidine-1-carboxylate]",19
13,"N#CCN1CCC(O)C(C2c3ccccc3-c3cncn32)C1 (single isomer, unassigned) [Example 58a]",0.36
14,"O[C@H]1CCC(F)(F)C[C@H]1[C@@H]1c2ccccc2-c2cncn21 (single isomer, unassigned) [Example 18f]",15
15,"N[C@@H]1COC[C@@H]1[C@H]1c2ccccc2-c2cncn21 (single isomer, unassigned) [Example 32c]",5.2
16,"OC1c2cncn2CCC1C1c2ccccc2-c2cncn21 (single isomer, unassigned) [Example 07a]",15
17,"OC1CCOCC1C1c2cc(F)ccc2-c2cncn21 (single isomer, unassigned) [Example 75c]",19
18,"CC1(C)OC(C)(C)C(C2c3ccccc3-c3cncn32)C1O (single isomer, unassigned) [Example 84a]",14
19,"CN(C)C(=O)c1ccc2c(c1)CCC(C1c3ccccc3-c3cncn31)C2O (single isomer, unassigned) [Example 98h]",9.8

row,Structure (SMILES),EC50 [µM]
1,"OC1COCC1C1c2ccccc2-c2cncn21 (single isomer, unassigned) [Example 26b]",0.23
2,"O[C@@H]1CCC[C@@H]1[C@H]1c2ccccc2-c2cncn21 [Example 02c, (1R,2R)-2-((S)-5H-imidazo[5,1-a]isoindol-5-yl)cyclopentan-1-ol]",0.3
3,"OC1COCCC1C1c2ccc(F)cc2-c2cncn21 (single isomer, unassigned) [Example 33a]",> 25
4,"OC1CCCC1C1c2ccccc2-c2cncn21 (single isomer, unassigned) [Example 02g]",0.34
5,"CS(=O)(=O)c1ccc2c(c1)CCC(C1c3ccccc3-c3cncn31)C2O (single isomer, unassigned) [Example 36h]",0.98
6,"CC1(C)CCC(C2c3ccccc3-c3cncn32)C1O (single isomer, unassigned) [Example 23d]",0.11
7,"OCC(O)C1c2ccccc2-c2cncn21 (single isomer, unassigned) [Example 49d, 1-(5H-imidazo[5,1-a]isoindol-5-yl)ethane-1,2-diol]",1.44
8,"OC1COCCC1C1c2cc(F)ccc2-c2cncn21 (single isomer, unassigned) [Example 75-1c]",0.11
9,"CC1(C)CCC(C2c3ccccc3-c3cncn32)C1O (single isomer, unassigned) [Example 23f]",2.7
10,"CS(=O)(=O)N1CC[C@@H]([C@@H]2c3ccccc3-c3cncn32)[C@H](O)C1 [Example 64a, (3S,4S)-4-((R)-5H-imidazo[5,1-a]isoindol-5-yl)-1-(methylsulfonyl)piperidin-3-ol]",> 25
11,"O=S1(=O)CC(O)C(C2c3ccccc3-c3cncn32)C1 (single isomer, unassigned) [Example 38d]",3.8
12,"OC1CCOCC1C1c2cc(F)ccc2-c2cncn21 (single isomer, unassigned) [Example 75a]",> 25
13,"OC1c2cccnc2CCC1C1c2ccccc2-c2cncn21 (single isomer, unassigned) [Example 31f]",0.082
14,"N#CCN1CCC(O)C(C2c3ccccc3-c3cncn32)C1 (single isomer, unassigned) [Example 14d]",> 25
15,"OC1COCC1C1c2ccc(F)cc2-c2cncn21 (single isomer, unassigned) [Example 30c]",2.1
16,"O[C@H]1c2cccnc2CC[C@@H]1[C@H]1c2ccccc2-c2cncn21 [Example 31b, (5R,6R)-6-((S)-5H-imidazo[5,1-a]isoindol-5-yl)-5,6,7,8-tetrahydroquinolin-5-ol]",1.4
17,"CC1(C)CCCC(C2c3ccccc3-c3cncn32)C1O (single isomer, unassigned) [Example 24d]",1.1
18,"CC1(C)CCCC(C)(C2c3ccccc3-c3cncn32)C1O (single isomer, unassigned) [Example 90d]",9.4
19,"CS(=O)(=O)c1ccc2c(c1)CCC(C1c3ccccc3-c3cncn31)C2O (single isomer, unassigned) [Example 36c]",7.4

# Continued, values first:
row,EC50 [µM],Structure (SMILES)
1,> 25,"OC1c2cnncc2CCC1C1c2ccccc2-c2cncn21 (single isomer, unassigned) [Example 112h]"
2,3.7,"Cc1cnn2c1C(O)C(C1c3ccccc3-c3cncn31)CC2 (single isomer, unassigned) [Example 159d]"
3,> 25,"OC1COCCC1C1c2cccc(F)c2-c2cncn21 (single isomer, unassigned) [Example 99a]"
4,0.15,"N#Cc1cc2n(n1)CCC(C1c3ccccc3-c3cncn31)C2O (single isomer, unassigned) [Example 174b]"
5,6.7,"OC1c2cccn2CCC1C1c2ccccc2-c2cncn21 (single isomer, unassigned) [Example 136c]"
6,11,"OC1CC(CF)(CF)C1C1c2ccccc2-c2cncn21 (single isomer, unassigned) [Example 150f]"
7,> 25,"N#Cc1cnn2c1C(O)C(C1c3ccccc3-c3cncn31)CC2 (single isomer, unassigned) [Example 156a]"
8,23,"NC(=O)c1ccc2c(n1)CCC(C1c3ccccc3-c3cncn31)C2O (single isomer, unassigned) [Example 104c]"
9,0.096,"OC1c2[nH]ncc2CCC1C1c2ccccc2-c2cncn21 (single isomer, unassigned) [Example 157e]"
10,0.14,"Cc1nc2c(o1)CCC(C1c3ccccc3-c3cncn31)C2O (single isomer, unassigned) [Example 168a]"
11,0.12,"NS(=O)(=O)c1ccc2c(c1)CCC(C1c3ccccc3-c3cncn31)C2O (single isomer, unassigned) [Example 100a]"
12,18,"OC1CC(CF)(CF)C1C1c2ccccc2-c2cncn21 (single isomer, unassigned) [Example 150d]"
13,1.3,"NS(=O)(=O)c1ccc2c(c1)CCC(C1c3ccccc3-c3cncn31)C2O (single isomer, unassigned) [Example 100b]"
14,16,"Cc1ncc2c(n1)CCC(C1c3ccccc3-c3cncn31)C2O (single isomer, unassigned) [Example 124a]"
15,5,"N#Cc1ccc2c(c1)C(O)C(C1c3ccccc3-c3cncn31)CC2 (single isomer, unassigned) [Example 113b]"
16,8.6,"NC(=O)c1ccc2c(n1)CCC(C1c3ccccc3-c3cncn31)C2O (single isomer, unassigned) [Example 104f]"
17,> 25,"CS(=O)(=O)N1CCC2(CC1)CC(C1c3ccccc3-c3cncn31)C2O (single isomer, unassigned) [Example 179c]"
18,0.7,"Nc1cc2n(n1)CC[C@@H]([C@H]1c3ccccc3-c3cncn31)[C@@H]2O [Example 161b, (4S,5S)-2-amino-5-((S)-5H-imidazo[5,1-a]isoindol-5-yl)-4,5,6,7-tetrahydropyrazolo[1,5-a]pyridin-4-ol]"
19,15,"NS(=O)(=O)c1ccc2c(c1)CCC(C1c3ccccc3-c3cncn31)C2O (single isomer, unassigned) [Example 100f]"
20,0.17,"O[C@H]1[C@H]([C@H]2c3ccccc3-c3cncn32)CCCC1(F)F (single isomer, unassigned) [Example 106b]"
21,> 25,"Cn1cc2c(n1)[C@@H](O)[C@@H]([C@@H]1c3ccccc3-c3cncn31)CC2 (single isomer, unassigned) [Example 139-1c]"
22,0.7,"Cn1cc2c(n1)[C@@H](O)[C@@H]([C@@H]1c3ccccc3-c3cncn31)CC2 (single isomer, unassigned) [Example 139-1d]"
23,8.4,"CS(=O)(=O)N1CCC(C2c3ccc(F)cc3-c3cncn32)C(O)C1 (single isomer, unassigned) [Example 119b]"
24,24,"O[C@@H]1c2nccnc2CC[C@H]1[C@H]1c2ccccc2-c2cncn21 (single isomer, unassigned) [Example 123a]"
25,7.5,"CC1(C)CCCCC1(O)C1c2ccccc2-c2cncn21 (single isomer, unassigned) [Example 164b]"
